Results as given in ChEMBL document CHEMBL1629647, “Preclinical evaluation of GS-9160, a novel inhibitor of human immunodeficiency virus type 1 integrase” (Antimicrob Agents Chemother, 2009).

Legend:
[1] = Cytotoxicity against human SupT1 cells infected with HIV1 3B; format: cell-based, SUP-T1; details: SupT1 cells infected with HIV-1 3B
[2] = system: Human immunodeficiency virus 1; assay: Antiviral activity against HIV1 3B infected in human MT-2 cells by two fold dilution method in presence of 10% FBS; format: functional, organism-based; details: Human immunodeficiency virus 1, 3B, MT2
[3] = system: Human immunodeficiency virus 1; assay: Selectivity ratio of EC50 for antiviral activity against HIV1 harboring E138K and Q148K mutation in catalytic core domain of integrase to EC50 for antiviral activity against wild-type HIV1 3B; format: functional
[4] = system: Human immunodeficiency virus 1; assay: Selectivity ratio of EC50 for antiviral activity against HIV1 harboring L74M mutation in catalytic core domain of integrase to EC50 for antiviral activity against wild-type HIV1 3B; format: functional
[5] = system: Human immunodeficiency virus 1; assay: Selectivity ratio of EC50 for antiviral activity against HIV1 harboring L74M and E92V mutation in catalytic core domain of integrase to EC50 for antiviral activity against wild-type HIV1 3B; format: functional
[6] = system: Human immunodeficiency virus 1; assay: Selectivity ratio of EC50 for antiviral activity against NRTI-resistant HIV1 harboring RTM184V mutant gene to EC50 for antiviral activity against wild-type HIV1 3B; format: functional
[7] = system: Human immunodeficiency virus 1; assay: Selectivity ratio of EC50 for antiviral activity against HIV1 harboring E92Q mutation in catalytic core domain of integrase to EC50 for antiviral activity against wild-type HIV1 3B; format: functional
[8] = system: Human immunodeficiency virus 1; assay: Selectivity ratio of EC50 for antiviral activity against HIV1 harboring G140S mutation in catalytic core domain of integrase to EC50 for antiviral activity against wild-type HIV1 3B; format: functional
[9] = system: Human immunodeficiency virus 1; assay: Selectivity ratio of EC50 for antiviral activity against HIV1 harboring E138K mutation in catalytic core domain of integrase to EC50 for antiviral activity against wild-type HIV1 3B; format: functional
[10] = system: Human immunodeficiency virus 1; assay: Selectivity ratio of EC50 for antiviral activity against HIV1 harboring N155S mutation in catalytic core domain of integrase to EC50 for antiviral activity against wild-type HIV1 3B; format: functional
[11] = system: Human immunodeficiency virus 1; assay: Selectivity ratio of EC50 for antiviral activity against NNRTI-resistant HIV1 harboring RTY181C mutant gene to EC50 for antiviral activity against wild-type HIV1 3B; format: functional
[12] = system: Human immunodeficiency virus 1; assay: Selectivity ratio of EC50 for antiviral activity against HIV1 harboring T66I mutation in catalytic core domain of integrase to EC50 for antiviral activity against wild-type HIV1 3B; format: functional
[13] = system: Human immunodeficiency virus 1; assay: Selectivity ratio of EC50 for antiviral activity against HIV1 harboring G140S and Q148H mutation in catalytic core domain of integrase to EC50 for antiviral activity against wild-type HIV1 3B; format: functional
[14] = system: Human immunodeficiency virus 1; assay: Selectivity ratio of EC50 for antiviral activity against HIV1 harboring N155H mutation in catalytic core domain of integrase to EC50 for antiviral activity against wild-type HIV1 3B; format: functional
[15] = system: Human immunodeficiency virus 1; assay: Selectivity ratio of EC50 for antiviral activity against HIV1 harboring E92V, G140S and V151A mutation in catalytic core domain of integrase to EC50 for antiviral activity against wild-type HIV1 3B; format: functional
[16] = system: Human immunodeficiency virus 1; assay: Selectivity ratio of EC50 for antiviral activity against HIV1 harboring E92V mutation in catalytic core domain of integrase to EC50 for antiviral activity against wild-type HIV1 3B; format: functional
[17] = system: Human immunodeficiency virus 1; assay: Selectivity ratio of EC50 for antiviral activity against PI-resistant HIV1 harboring […], L90M mutant gene to EC50 for antiviral activity against wild-type HIV1 3B; format: functional
[18] = system: Human immunodeficiency virus 1; assay: Selectivity ratio of EC50 for antiviral activity against PI-resistant HIV1 harboring […], V82A and L90M mutant gene to EC50 for antiviral activity against wild-type HIV1 3B; format: functional
[19] = system: Human immunodeficiency virus 1; assay: Selectivity ratio of EC50 for antiviral activity against NRTI-resistant HIV1 harboring RT-6TAMs mutant gene to EC50 for antiviral activity against wild-type HIV1 3B; format: functional
[20] = system: Human immunodeficiency virus 1; assay: Selectivity ratio of EC50 for antiviral activity against HIV1 harboring V151A mutation in catalytic core domain of integrase to EC50 for antiviral activity against wild-type HIV1 3B; format: functional
[21] = system: Human immunodeficiency virus 1; assay: Selectivity ratio of EC50 for antiviral activity against HIV1 harboring Q148K mutation in catalytic core domain of integrase to EC50 for antiviral activity against wild-type HIV1 3B; format: functional
[22] = system: Human immunodeficiency virus 1; assay: Selectivity ratio of EC50 for antiviral activity against HIV1 harboring E92V and V151A mutation in catalytic core domain of integrase to EC50 for antiviral activity against wild-type HIV1 3B; format: functional
[23] = system: Human immunodeficiency virus 1; assay: Selectivity ratio of EC50 for antiviral activity against NNRTI-resistant HIV1 harboring RTK103N mutant gene to EC50 for antiviral activity against wild-type HIV1 3B; format: functional
[24] = system: Human immunodeficiency virus 1; assay: Selectivity ratio of EC50 for antiviral activity against NRTI-resistant HIV1 harboring RTK65R mutant gene to EC50 for antiviral activity against wild-type HIV1 3B; format: functional
[25] = system: Human immunodeficiency virus 1; assay: Selectivity ratio of EC50 for antiviral activity against GS-9160-resistant HIV1 selected after 6 passages to EC50 for antiviral activity against wild-type HIV1 3B; format: functional
[26] = system: Human immunodeficiency virus 1; assay: Selectivity ratio of EC50 for antiviral activity against EFV-resistant HIV1 selected after 7 passages to EC50 for antiviral activity against wild-type HIV1 3B; format: functional
[27] = system: Human immunodeficiency virus 1; assay: Selectivity ratio of EC50 for antiviral activity against GS-9160-resistant HIV1 selected after 9 passages to EC50 for antiviral activity against wild-type HIV1 3B; format: functional
[28] = system: Human immunodeficiency virus 1; assay: Selectivity ratio of EC50 for antiviral activity against GS-9160-resistant HIV1 selected after 5 passages to EC50 for antiviral activity against wild-type HIV1 3B; format: functional
[29] = system: Human immunodeficiency virus 1; assay: Selectivity ratio of EC50 for antiviral activity against APV-resistant HIV1 selected after 4 passages to EC50 for antiviral activity against wild-type HIV1 3B; format: functional
[30] = system: Human immunodeficiency virus 1; assay: Selectivity ratio of EC50 for antiviral activity against GS-9160-resistant HIV1 selected after 8 passages to EC50 for antiviral activity against wild-type HIV1 3B; format: functional
[31] = system: Human immunodeficiency virus 1; assay: Selectivity ratio of EC50 for antiviral activity against EFV-resistant HIV1 selected after 3 passages to EC50 for antiviral activity against wild-type HIV1 3B; format: functional
[32] = system: Human immunodeficiency virus 1; assay: Selectivity ratio of EC50 for antiviral activity against 3TC-resistant HIV1 selected after 8 passages to EC50 for antiviral activity against wild-type HIV1 3B; format: functional
[33] = system: Human immunodeficiency virus 1; assay: Selectivity ratio of EC50 for antiviral activity against APV-resistant HIV1 selected after 2 passages to EC50 for antiviral activity against wild-type HIV1 3B; format: functional
[34] = system: Human immunodeficiency virus 1; assay: Selectivity ratio of EC50 for antiviral activity against 3TC-resistant HIV1 selected after 4 passages to EC50 for antiviral activity against wild-type HIV1 3B; format: functional

Compound	EC50 [2] [nM]	Ratio EC50 [3]	Ratio EC50 [4]	Ratio EC50 [5]	Ratio EC50 [6]	Ratio EC50 [7]	Ratio EC50 [8]	Ratio EC50 [9]	Ratio EC50 [10]	Ratio EC50 [11]	Ratio EC50 [12]	Ratio EC50 [13]	Ratio EC50 [14]	Ratio EC50 [15]	Ratio EC50 [16]	Ratio EC50 [17]	Ratio EC50 [18]	Ratio EC50 [19]	Ratio EC50 [20]	Ratio EC50 [21]	other results
O=C1Nc2ccc(Cl)cc2[C@@](C#CC2CC2)(C(F)(F)F)O1 [EFAVIRENZ]	6.8																				CC50 [1]: 15500 nM
Nc1nc(=O)n([C@@H]2CS[C@H](CO)O2)cc1F [EMTRICITABINE]	323	2	1	2	>55	2	1	1	3	0.4	1	0.8	2	2	1	1	1	23	3	2	Ratio EC50 [22]: 4; Ratio EC50 [23]: 1; Ratio EC50 [24]: 26
Nc1ccn([C@@H]2CS[C@H](CO)O2)c(=O)n1 [LAMIVUDINE]																					Ratio EC50 [25]: 4.5; Ratio EC50 [26]: 1; Ratio EC50 [27]: 1.4; Ratio EC50 [28]: 1.8; Ratio EC50 [29]: 9; Ratio EC50 [30]: 5.7; Ratio EC50 [31]: 2; Ratio EC50 [32]: >272; Ratio EC50 [33]: 7; Ratio EC50 [34]: >272
Cc1cccc(C)c1OCC(=O)N[C@@H](Cc1ccccc1)[C@@H](O)C[C@H](Cc1ccccc1)NC(=O)[C@H](C(C)C)N1CCCNC1=O [LOPINAVIR]	4.8	1	1	1	3	1	1	1	2	1	4	1	2	2	1	29	9	5	1	1	Ratio EC50 [22]: 1; Ratio EC50 [23]: 1; Ratio EC50 [24]: 3
CC(C)OC(=O)OCOP(=O)(CO[C@H](C)Cn1cnc2c(N)ncnc21)OCOC(=O)OC(C)C.O=C(O)/C=C/C(=O)O [TENOFOVIR DISOPROXIL FUMARATE]	6.8	2	1	1	1	1	1	2	2	1	1	0.3	2	2	2	1	1	9	2	1	Ratio EC50 [22]: 2; Ratio EC50 [23]: 1; Ratio EC50 [24]: 4
